Measured values as given in patent US8415308B2, “1′-substituted-carba-nucleoside prodrugs for antiviral treatment” (Gilead Sciences, Inc., priority 2010, dated 2013).
Read-outs that look alike come from different tables or passages of the source.

How the values were obtained:
Replicon cells = assay: HCV EC50 determination in replicon cells (luciferase); format: cell-based; conditions: Hepatitis C virus, 72 h
Method: Replicon cells were seeded in 96-well plates at a density of 8×10^3 cells per well in 100 μL of culture medium, excluding Geneticin. Compound was serially diluted in 100% DMSO and then added to the cells at a 1:200 dilution, achieving a final concentration of 0.5% DMSO and a total volume of 200 μL. Plates were incubated at 37° C. for 3 days, after which culture medium was removed and cells were lysed in lysis buffer provided by Promega's luciferase assay system. Following the manufacturer's instruction, 100 μL of luciferase substrate was added to the lysed cells and luciferase activity was measured in a TopCount luminometer.
The specific activity observed may vary according to and depending on the particular replicon tested, the active compound selected or whether there are present pharmaceutical carriers, as well as the type of formulation and mode of administration employed, and such expected variations or differences in the results are contemplated in accordance with practice of the present invention.

HCV Δ21 NS5b polymerase = molecular target: T1, HCV Δ21 NS5b polymerase (Hepatitis C virus genotype 1b, UniProt Q9WMX2); assay: HCV IC50 determination, NS5b polymerase assay; format: biochemical
T1 construct: 75 nM HCV Δ21 NS5b polymerase
Method: Assay Protocol: NS5b polymerase assay (40 μL) was assembled by adding 28 μL polymerase mixture (final concentration: 50 mM Tris-HCl at pH 7.5, 10 mM KCL, 5 mM MgCl2, 1 mM DTT, 10 mM EDTA, 4 ng/μL of RNA template, and 75 nM HCV Δ21 NS5b polymerase) to assay plates followed by 4 μL of compound dilution. The polymerase and compound were pre-incubated at 35° C. for 10 minute before the addition of 8 μL of nucleotide substrate mixture (33P-α-labeled competing nucleotide at KM and 0.5 mM of the remaining three nucleotides). The assay plates were covered and incubated at 35° C. for 90 min. Reactions were then filtered through 96-well DEAE-81 filter plates via vacuum. The filter plates were then washed under vacuum with multiple volumes of 0.125 M NaHPO4, water, and ethanol to remove unincorporated label. Plates were then counted on TopCount to assess the level of product synthesis over background controls. The IC50 value is determined using Prism fitting program.

[1] = replicon cells, 3 days, luciferase activity, read-out: EC50

Compound: CC(C)OC(=O)[C@H](C)NP(=O)(N[C@@H](C)C(=O)OC(C)C)OC[C@H]1O[C@@](C#N)(c2ccc3c(N)ncnn23)[C@](C)(O)[C@@H]1O [Compound 61]
- EC50 (Replicon cells; [1]): 51000 nM

Compound: CC(C)OC(=O)[C@H](C)NP(=O)(N[C@@H](C)C(=O)OC(C)C)OC[C@H]1O[C@@](C#N)(c2ccc3c(N)ncnn23)[C@](C)(O)[C@@H]1OC(=O)C(C)C [Compound 64]
- EC50 (Replicon cells; [1]): 5380 nM

Compound: C[C@@]1(O)[C@H](O)[C@@H](COP(=O)(O)OP(=O)(O)OP(=O)(O)O)O[C@@]1(C#N)c1ccc2c(N)ncnn12 [Compound 7]
- IC50 (HCV Δ21 NS5b polymerase): < 1000 nM

Compound: CC(=O)O[C@@H]1[C@@H](COP(=O)(N[C@@H](C)C(=O)OC(C)C)N[C@@H](C)C(=O)OC(C)C)O[C@@](C#N)(c2ccc3c(N)ncnn23)[C@]1(C)O [Compound 65]
- EC50 (Replicon cells; [1]): 8400 nM

Compound: CC(C)OC(=O)[C@H](C)N[P@@](=O)(OC[C@H]1O[C@@](C#N)(c2ccc3c(N)ncnn23)[C@](C)(O)[C@@H]1OC(=O)C(C)C)Oc1ccccc1 [Compound 8B]
- EC50 (Replicon cells): 460 to 1900 nM

Compound: CC(C)OC(=O)[C@H](C)NP(=O)(OC[C@H]1O[C@@](C#N)(c2ccc3c(N)ncnn23)[C@](C)(O)[C@@H]1OC(=O)C(C)C)Oc1ccccc1 (stereo partly drawn) [Compound 8]
- EC50 (Replicon cells): 140 to 520 nM

Compound: CC(C)OC(=O)[C@H](C)NP(=O)(OC[C@H]1O[C@@](C#N)(c2ccc3c(N)ncnn23)[C@](C)(O)[C@@H]1O)Oc1ccccc1 (stereo partly drawn) [Compound 6]
- EC50 (Replicon cells): 480 to 1800 nM

Compound: C[C@@]1(O)[C@H](O)[C@@H](CO)O[C@@]1(C#N)c1ccc2c(N)ncnn12 [Compound 5]
- EC50 (Replicon cells; [1]): > 89000 nM

Compound: CC(C)OC(=O)[C@H](C)N[P@](=O)(OC[C@H]1O[C@@](C#N)(c2ccc3c(N)ncnn23)[C@](C)(O)[C@@H]1OC(=O)C(C)C)Oc1ccccc1 [Compound 8A]
- EC50 (Replicon cells): 96 to 360 nM
